Experimental data: PubChem BioAssay AID248 (DTP/NCI, 2004)
“And” between values parts separate entries of the source, which are not always exact repeats. Equal values may be shown once. Inconclusive results and toxic doses are left out. Cut-off read from the data, not from the text of the source: active = T/C of 150% or more; inactive = T/C below 125%.

System: L1210 leukemia ip in BDF1 mice, survival T/C
Assay: NCI In Vivo Anticancer Drug Screen. Data for tumor model L1210 Leukemia (intraperitoneal) in B6D2F1 (BDF1) mice
Details: endpoint: mean survival time, higher = longer survival
Outline: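 Read-out is survival time, reported as the treated-group measurement over the vehicle-control measurement.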

[1] = dose: 50.0 mg/kg/injection, schedule: Q01DX009 (ip), vehicle: Klucel (hydroxypropylcellulose) (HPC)
[2] = dose: 50.0 mg/kg/injection, schedule: Q04DX003 (ip), vehicle: Klucel (hydroxypropylcellulose) (HPC)
[3] = dose: 100.0 mg/kg/injection, schedule: Q01DX009 (ip), vehicle: Klucel (hydroxypropylcellulose) (HPC)
[4] = dose: 100.0 mg/kg/injection, schedule: Q04DX003 (ip), vehicle: Klucel (hydroxypropylcellulose) (HPC)
[5] = dose: 100.0 mg/kg/injection, schedule: Q04DX003 (ip), vehicle: saline with Tween-80
[6] = dose: 200.0 mg/kg/injection, schedule: Q01DX009 (ip), vehicle: Klucel (hydroxypropylcellulose) (HPC)
[7] = dose: 25.0 mg/kg/injection, schedule: Q04DX002 (ip), vehicle: Klucel (hydroxypropylcellulose) (HPC)
[8] = dose: 50.0 mg/kg/injection, schedule: Q04DX002 (ip), vehicle: Klucel (hydroxypropylcellulose) (HPC)
[9] = dose: 100.0 mg/kg/injection, schedule: Q04DX002 (ip), vehicle: Klucel (hydroxypropylcellulose) (HPC)
[10] = dose: 25.0 mg/kg/injection, schedule: Q01DX009 (ip), vehicle: saline
[11] = dose: 400.0 mg/kg/injection, schedule: Q04DX003 (ip), vehicle: saline with Tween-80
[12] = dose: 100.0 mg/kg/injection, schedule: Q01DX001 (ip), vehicle: saline
[13] = dose: 200.0 mg/kg/injection, schedule: Q01DX001 (ip), vehicle: saline
[14] = dose: 400.0 mg/kg/injection, schedule: Q01DX001 (ip), vehicle: saline
[15] = dose: 75.0 mg/kg/injection, schedule: Q01DX001 (ip), vehicle: carboxymethylcellulose (CMC)
[16] = dose: 150.0 mg/kg/injection, schedule: Q01DX001 (ip), vehicle: carboxymethylcellulose (CMC)
[17] = dose: 100.0 mg/kg/injection, schedule: Q04DX003 (ip), vehicle: saline
[18] = dose: 200.0 mg/kg/injection, schedule: Q04DX003 (ip), vehicle: Klucel (hydroxypropylcellulose) (HPC)
[19] = dose: 400.0 mg/kg/injection, schedule: Q04DX003 (ip), vehicle: Klucel (hydroxypropylcellulose) (HPC)

Measured: T/C

Clc1ccc(Cl)c(CBr)c1Cl
inactive: dose: 25.0 mg/kg/injection, schedule: Q04DX003 (ip), vehicle: Klucel (hydroxypropylcellulose) (HPC) 98 % of control | [1] 98 % of control | [2] 101 % of control | [3] 88 % of control | [4] 101 % of control | [5] 100 % of control | [6] 90 % of control

[CH3][Sn]([CH3])([CH3])[c]1ccc(-c2ccccc2)cc1
inactive: [7] 92 % of control | [8] 95 % of control | [9] 100 % of control

CN1CCc2c3n(c4ccccc24)C(=O)CCC31 (stereo unspecified)
inactive: dose: 6.25 mg/kg/injection, schedule: Q01DX009 (ip), vehicle: saline 106 % of control | dose: 12.5 mg/kg/injection, schedule: Q01DX009 (ip), vehicle: saline 101 % of control | [10] 104 % of control

COc1cccc2c1C(=O)c1c(OC)c(C(Br)Br)cc(OC)c1C2=O
inactive: dose: 12.5 mg/kg/injection, schedule: Q01DX009 (ip), vehicle: other 99 % of control | dose: 25.0 mg/kg/injection, schedule: Q01DX009 (ip), vehicle: other 89 % of control | dose: 50.0 mg/kg/injection, schedule: Q01DX009 (ip), vehicle: other 89 % of control | dose: 100.0 mg/kg/injection, schedule: Q01DX009 (ip), vehicle: other 89 % of control | dose: 200.0 mg/kg/injection, schedule: Q01DX009 (ip), vehicle: other 87 % of control

COc1ccccc1C(=O)N/N=C(\C)c1cccc2ccccc12
inactive: [3] 108 % of control | [6] 110 % of control | dose: 400.0 mg/kg/injection, schedule: Q01DX009 (ip), vehicle: Klucel (hydroxypropylcellulose) (HPC) 96 % of control

O=C(O)c1ccc(F)c(F)c1F
inactive: dose: 100.0 mg/kg/injection, schedule: Q04DX002 (ip), vehicle: other 121 % of control | dose: 200.0 mg/kg/injection, schedule: Q04DX002 (ip), vehicle: other 115 % of control

c1ccc(-c2csc3[n+]2CCN3)cc1
inactive: dose: 50.0 mg/kg/injection, schedule: Q01DX001 (ip), vehicle: saline 99 % of control

COc1cc(\C=N/N=C/C=C/c2ccccc2)cc(OC)c1OC
inactive: dose: 50.0 mg/kg/injection, schedule: Q04DX003 (ip), vehicle: saline with Tween-80 95 % of control | dose: 100.0 mg/kg/injection, schedule: Q04DX002 (ip), vehicle: saline with Tween-80 87 % of control and 90 % of control | dose: 200.0 mg/kg/injection, schedule: Q04DX002 (ip), vehicle: saline with Tween-80 104 % of control and 113 % of control | dose: 400.0 mg/kg/injection, schedule: Q04DX002 (ip), vehicle: saline with Tween-80 102 % of control and 103 % of control | [11] 93 % of control and 88 % of control

CCSC1C(O)OC(CO)C(O)C1O (stereo unspecified)
inactive: [12] 95 % of control | [13] 106 % of control | [14] 104 % of control

N=C(N)S(=O)O
inactive: dose: 100.0 mg/kg/injection, schedule: Q01DX009 (ip), vehicle: saline with Tween-80 104 % of control

COc1cc(NCCCCCNC(C)C)c2ncccc2c1
inactive: dose: 5.0 mg/kg/injection, schedule: Q04DX002 (ip), vehicle: saline with Tween-80 100 % of control | dose: 10.0 mg/kg/injection, schedule: Q04DX002 (ip), vehicle: saline with Tween-80 97 % of control | dose: 20.0 mg/kg/injection, schedule: Q04DX002 (ip), vehicle: saline with Tween-80 100 % of control

CSc1nc2c(=O)[nH]cnc2n1C1OC(CO)C(O)C1O (stereo unspecified)
inactive: [12] 97 % of control | [13] 111 % of control | [14] 103 % of control

Cc1cccc(CCSCCc2cccc(C)[n+]2[O-])[n+]1[O-]
inactive: [12] 96 % of control | [13] 92 % of control

O=C(Cl)C(Cl)(Cl)Cl
inactive: dose: 100.0 mg/kg/injection, schedule: Q04DX002 (sc), vehicle: olive oil, sesame oil, peanut oil 103 % of control | dose: 200.0 mg/kg/injection, schedule: Q04DX002 (sc), vehicle: olive oil, sesame oil, peanut oil 116 % of control | dose: 400.0 mg/kg/injection, schedule: Q04DX002 (sc), vehicle: olive oil, sesame oil, peanut oil 100 % of control

COc1cccc2c1CCC1=C2CC=C2CC3(CCC21C)OCCO3 (stereo unspecified)
inactive: dose: 100.0 mg/kg/injection, schedule: Q01DX009 (sc), vehicle: steriod suspending solution 91 % of control | dose: 200.0 mg/kg/injection, schedule: Q01DX009 (sc), vehicle: steriod suspending solution 101 % of control | dose: 400.0 mg/kg/injection, schedule: Q01DX009 (sc), vehicle: steriod suspending solution 106 % of control

CN(C)CCN(Cc1ccccc1)c1ccccn1
inactive: [15] 100 % of control | [16] 95 % of control

C[N+](C)(CCOC(=O)C1C2CC3OC(=O)C1C3C2)Cc1ccccc1 (stereo unspecified)
inactive: [17] 101 % of control

ClCCN(CCCl)c1ccc(C=Nc2cc(Cl)ccc2-n2ccnc2)c(Cl)c1
inactive: [9] 98 % of control | dose: 200.0 mg/kg/injection, schedule: Q04DX002 (ip), vehicle: Klucel (hydroxypropylcellulose) (HPC) 95 % of control | dose: 400.0 mg/kg/injection, schedule: Q04DX002 (ip), vehicle: Klucel (hydroxypropylcellulose) (HPC) 98 % of control

COc1cc(CNC(=O)CCN2CC2)ccc1O
inactive: [2] 109 % of control | [4] 98 % of control | [18] 95 % of control | [19] 97 % of control

COC(=O)c1cc2c(s1)C(=O)c1ccccc1-2
inactive: [4] 104 % of control | [18] 94 % of control | [19] 105 % of control

COc1cc(/C=C(/C)[N+](=O)[O-])c([N+](=O)[O-])cc1OC
inactive: [12] 98 % of control | [13] 90 % of control

C/C(=C/C(=O)O)c1cc2ccccc2n1C
inactive: [5] 100 % of control | dose: 200.0 mg/kg/injection, schedule: Q04DX003 (ip), vehicle: saline with Tween-80 92 % of control | [11] 96 % of control

O=C1NC(=O)C2C3OC(C(Cl)C3Cl)C12 (stereo unspecified)
inactive: dose: 12.5 mg/kg/injection, schedule: Q04DX002 (ip), vehicle: Klucel (hydroxypropylcellulose) (HPC) 98 % of control | dose: 25.0 mg/kg/injection, schedule: Q01DX009 (ip), vehicle: Klucel (hydroxypropylcellulose) (HPC) 97 % of control | [7] 102 % of control | [1] 107 % of control | [8] 98 % of control | dose: 75.0 mg/kg/injection, schedule: Q01DX009 (ip), vehicle: Klucel (hydroxypropylcellulose) (HPC) 96 % of control | dose: 75.0 mg/kg/injection, schedule: Q01DX009 (ip), vehicle: carboxymethylcellulose (CMC) 100 % of control

COc1ccc(S(=O)(=O)F)cc1NC(=O)CCc1ccc(N2C(N)=NC(N)=NC2(C)C)cc1
inactive: dose: 100.0 mg/kg/injection, schedule: Q01DX001 (ip), vehicle: gum acacia 115 % of control | dose: 200.0 mg/kg/injection, schedule: Q01DX001 (ip), vehicle: gum acacia 101 % of control

CCC(=N)C1CCCCC1
inactive: [15] 102 % of control | [16] 93 % of control

CNc1n[n+](-c2ccccc2)no1
inactive: [10] 93 % of control | dose: 25.0 mg/kg/injection, schedule: Q04DX003 (ip), vehicle: saline 111 % of control | dose: 50.0 mg/kg/injection, schedule: Q01DX009 (ip), vehicle: saline 109 % of control | dose: 50.0 mg/kg/injection, schedule: Q04DX003 (ip), vehicle: saline 104 % of control | [17] 97 % of control and 101 % of control
